A value given as a limit tells only on which side of the number the result lay.

Experiment [1] has as its target T1, FES (Homo sapiens, UniProt P07332).
T1 construct: purchased Ambit Biosciences (San Diego, Calif.)
Description: KinomeScan kinase profiling. It counts as binding. The procedure, abridged:
(§1)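 To gauge selectivity, test compounds are profiled across a KinomeScan collection of upwards of 200 kinases.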

Experiment [2] addresses T2, DAPK3 (Homo sapiens, UniProt O43293).
T2 construct: purchased Ambit Biosciences (San Diego, Calif.)
In words: KinomeScan kinase profiling. The experiment is classed as binding. The method in brief: as §1

The target in experiment [3] is T3, CAMK2A (Homo sapiens, UniProt Q9UQM7).
T3 construct: purchased Ambit Biosciences (San Diego, Calif.)
Description: KinomeScan kinase profiling. It counts as binding. The method in brief: as §1

Experiment [4] concerns the target T4, ITK (Homo sapiens, UniProt Q08881).
T4 construct: purchased Ambit Biosciences (San Diego, Calif.)
Description: KinomeScan kinase profiling. It counts as binding. The procedure, abridged:
as §1

Experiment [5] has as its target T5, LCK (Homo sapiens, UniProt P06239).
T5 construct: purchased Ambit Biosciences (San Diego, Calif.)
In words: KinomeScan kinase profiling. It counts as binding.

The target in experiment [6] is T6, DAPK2 (Homo sapiens, UniProt Q9UIK4).
T6 construct: purchased Ambit Biosciences (San Diego, Calif.)
Description: KinomeScan kinase profiling. It counts as binding.
Description: (§3) The selectivity of a given CK1δ, CK1ε or CK1δ-CK1ε inhibitor compound can be determined by testing the compound against a panel of known kinases. An example of such a kinase profiling technology is the “KinomeScan” from Ambit Biosciences in which compounds can be screened for their modulatory activities against more than 200 known kinases.

Experiment [7] has as its system inflammatory synovitis. In words: Air pouch synovitis model. The settings on record: 1 μg LPS, FIG. 3. The experiment is classed as in vivo, Balbc/J mice. The source says:
(§2) Selective CK1δ, CK1ε or CK1δ-CK1ε inhibitors can be tested for their antiinflammatory effects using a variety of in vitro and in vivo tests that are well known in the art. One such in vitro test involves the application of the inhibitor to human neutrophils to observe whether the induction of inflammatory cytokines, such as IL-8, by tumor necrosis factor (TNF) or lipopolysaccharide (LPS) can be reduced. This test is further described in Example 2. An example of an in vivo test, as described in Example 3, is the air pouch model of inflammatory synovitis in mice in which the inhibitors are tested for their blockade of neutrophil influx as well as of inflammatory cytokine accumulation.
Adult Balbc/J mice were purchased from Charles River Labs and housed and utilized according IACUC protocols and standards. The airpouch was inflated on the dorsal surface of each mouse with 3 ml of air, after light anesthesia with CO2/O2 mix. Three days later each pouch was re-inflated with 3 mls of air. After an additional three days, the pouches were injected with vehicle or compound (normally in 0.1% DMSO in PBS) in 1 ml per pouch. After 20 to 30 minutes, each pouch received 1 μg of LPS or control (PBS). The animals were euthanized four to six hours later. The pouches were flushed with 2 ml of PBS, the cells were then collected, counted and normalized for volume recovered. The fluid recovered was analyzed for cytokine production (Luminex Mouse 21-plex assay). The cells were lysed for RNA or protein analysis.

Experiment [8] deals with T7, PCTK1 (Homo sapiens, UniProt Q00536).
T7 construct: purchased Ambit Biosciences (San Diego, Calif.)
Description: KinomeScan kinase profiling. The experiment is classed as binding.
Description: as §3

The test system of experiment [9] is IL-8 production in neutrophils. Description: Neutrophil assay: IL-8 production after stimulation by inflammatory agents. It counts as cell-based. The settings on record: human neutrophils stimulated by inflammatory agents, FIG. 2.
Excerpt: as §2
The Histopaque 1077 and 1119 gradient density centrifugation method (Sigma-Aldrich) was used to isolate granulocytes from human blood. The granulocytes were recovered from the 1077/1119 interphase, washed twice with PBS. The red blood cells were lysed with PureGene red cell lysis buffer (Gentra Biosystems). The cells were washed again and resuspended in growth media (RPMI, 10% FBS, β-mercaptoethanol, Pen/Strep/glutamine and sodium pyruvate) at a density of 1 to 5 million per ml. […] The supernatant was analyzed for cytokine production (Luminex human 22-plex assay) and the cells were lysed for RNA production and analysis.

The target in experiment [10] is T8, BRAF (Homo sapiens, UniProt P15056).
T8 construct: purchased Ambit Biosciences (San Diego, Calif.)
Description: KinomeScan kinase profiling. The experiment is classed as binding.
Description: as §3

The target in experiment [11] is T9, BRAF(V600E) (Homo sapiens, UniProt P15056, V600E).
T9 construct: purchased Ambit Biosciences (San Diego, Calif.)
In words: KinomeScan kinase profiling. The experiment is classed as binding.
Description: as §3

T5 sequence (P06239 whole entry): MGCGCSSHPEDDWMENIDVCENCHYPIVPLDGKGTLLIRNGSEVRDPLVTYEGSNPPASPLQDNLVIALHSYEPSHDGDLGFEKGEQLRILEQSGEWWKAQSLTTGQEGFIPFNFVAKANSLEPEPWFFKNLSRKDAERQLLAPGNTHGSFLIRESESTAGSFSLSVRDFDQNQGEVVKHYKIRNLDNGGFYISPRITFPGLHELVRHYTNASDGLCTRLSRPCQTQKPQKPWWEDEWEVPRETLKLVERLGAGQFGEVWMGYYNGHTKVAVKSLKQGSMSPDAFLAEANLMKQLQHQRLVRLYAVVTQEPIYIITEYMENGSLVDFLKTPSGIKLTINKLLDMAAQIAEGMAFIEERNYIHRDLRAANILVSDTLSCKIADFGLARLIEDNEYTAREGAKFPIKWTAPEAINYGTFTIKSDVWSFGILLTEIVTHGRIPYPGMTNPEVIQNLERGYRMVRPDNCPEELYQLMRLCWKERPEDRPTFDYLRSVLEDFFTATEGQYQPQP
T2 sequence (O43293 whole entry): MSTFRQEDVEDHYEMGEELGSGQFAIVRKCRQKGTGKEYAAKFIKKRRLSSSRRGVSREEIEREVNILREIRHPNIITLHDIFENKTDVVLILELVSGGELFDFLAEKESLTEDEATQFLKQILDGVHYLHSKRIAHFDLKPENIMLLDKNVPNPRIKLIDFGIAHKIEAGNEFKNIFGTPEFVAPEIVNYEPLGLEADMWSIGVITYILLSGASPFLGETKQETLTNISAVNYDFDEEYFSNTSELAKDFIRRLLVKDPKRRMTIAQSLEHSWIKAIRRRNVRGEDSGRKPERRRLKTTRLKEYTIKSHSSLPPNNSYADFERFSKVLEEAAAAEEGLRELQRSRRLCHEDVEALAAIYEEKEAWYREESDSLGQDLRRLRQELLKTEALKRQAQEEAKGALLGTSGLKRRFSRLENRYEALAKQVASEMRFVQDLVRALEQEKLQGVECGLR
T4 sequence (Q08881 whole entry): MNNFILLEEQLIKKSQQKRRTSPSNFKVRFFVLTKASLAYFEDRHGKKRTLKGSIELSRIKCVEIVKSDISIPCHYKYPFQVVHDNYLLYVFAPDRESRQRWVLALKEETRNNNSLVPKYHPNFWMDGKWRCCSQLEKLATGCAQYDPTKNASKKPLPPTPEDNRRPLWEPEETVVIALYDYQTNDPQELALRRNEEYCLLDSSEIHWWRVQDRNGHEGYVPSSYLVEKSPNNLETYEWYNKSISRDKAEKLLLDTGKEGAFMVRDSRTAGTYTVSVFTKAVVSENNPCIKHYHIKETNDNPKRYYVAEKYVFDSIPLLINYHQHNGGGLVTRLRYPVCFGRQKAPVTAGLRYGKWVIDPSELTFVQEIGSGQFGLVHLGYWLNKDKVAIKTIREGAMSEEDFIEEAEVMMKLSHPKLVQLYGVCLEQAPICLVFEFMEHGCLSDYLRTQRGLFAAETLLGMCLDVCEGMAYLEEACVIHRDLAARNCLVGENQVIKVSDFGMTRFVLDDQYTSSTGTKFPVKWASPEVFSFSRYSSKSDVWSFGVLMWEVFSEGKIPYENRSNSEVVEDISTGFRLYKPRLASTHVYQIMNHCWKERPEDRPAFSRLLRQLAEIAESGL
T7 sequence (Q00536 whole entry): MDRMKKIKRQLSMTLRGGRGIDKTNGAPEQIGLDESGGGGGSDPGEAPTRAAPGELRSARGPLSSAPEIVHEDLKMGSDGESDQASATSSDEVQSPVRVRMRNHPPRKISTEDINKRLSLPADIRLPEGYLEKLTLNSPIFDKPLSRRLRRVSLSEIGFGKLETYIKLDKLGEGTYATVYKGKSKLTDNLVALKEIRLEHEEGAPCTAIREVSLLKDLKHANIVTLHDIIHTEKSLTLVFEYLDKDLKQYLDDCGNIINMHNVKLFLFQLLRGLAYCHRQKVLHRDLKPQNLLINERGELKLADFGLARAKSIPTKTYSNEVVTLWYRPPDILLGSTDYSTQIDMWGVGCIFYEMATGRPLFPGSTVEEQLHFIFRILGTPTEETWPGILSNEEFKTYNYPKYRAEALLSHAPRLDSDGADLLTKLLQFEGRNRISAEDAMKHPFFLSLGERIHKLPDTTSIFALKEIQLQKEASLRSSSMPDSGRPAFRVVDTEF
T1 sequence (P07332 whole entry): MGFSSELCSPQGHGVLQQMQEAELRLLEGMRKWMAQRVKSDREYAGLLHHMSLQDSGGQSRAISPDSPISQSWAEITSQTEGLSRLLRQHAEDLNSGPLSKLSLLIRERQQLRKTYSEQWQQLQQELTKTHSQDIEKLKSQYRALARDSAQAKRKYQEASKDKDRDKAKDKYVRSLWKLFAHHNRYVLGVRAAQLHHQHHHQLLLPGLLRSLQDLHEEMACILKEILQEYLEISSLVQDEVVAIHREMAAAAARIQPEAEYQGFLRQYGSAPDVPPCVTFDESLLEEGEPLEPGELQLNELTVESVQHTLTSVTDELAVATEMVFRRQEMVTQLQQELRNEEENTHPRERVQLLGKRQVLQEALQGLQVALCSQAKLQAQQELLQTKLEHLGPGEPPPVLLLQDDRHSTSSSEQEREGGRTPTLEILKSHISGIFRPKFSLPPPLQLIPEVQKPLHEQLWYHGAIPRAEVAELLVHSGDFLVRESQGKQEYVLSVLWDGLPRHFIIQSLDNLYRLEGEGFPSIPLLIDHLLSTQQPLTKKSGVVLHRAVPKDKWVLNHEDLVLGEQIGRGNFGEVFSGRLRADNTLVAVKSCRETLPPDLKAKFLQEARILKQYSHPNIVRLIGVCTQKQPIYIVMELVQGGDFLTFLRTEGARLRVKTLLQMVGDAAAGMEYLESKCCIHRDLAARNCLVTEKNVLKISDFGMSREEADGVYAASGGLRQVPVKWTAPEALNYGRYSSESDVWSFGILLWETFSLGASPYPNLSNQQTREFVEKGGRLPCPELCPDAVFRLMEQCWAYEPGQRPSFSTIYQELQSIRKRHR
T6 sequence (Q9UIK4 whole entry): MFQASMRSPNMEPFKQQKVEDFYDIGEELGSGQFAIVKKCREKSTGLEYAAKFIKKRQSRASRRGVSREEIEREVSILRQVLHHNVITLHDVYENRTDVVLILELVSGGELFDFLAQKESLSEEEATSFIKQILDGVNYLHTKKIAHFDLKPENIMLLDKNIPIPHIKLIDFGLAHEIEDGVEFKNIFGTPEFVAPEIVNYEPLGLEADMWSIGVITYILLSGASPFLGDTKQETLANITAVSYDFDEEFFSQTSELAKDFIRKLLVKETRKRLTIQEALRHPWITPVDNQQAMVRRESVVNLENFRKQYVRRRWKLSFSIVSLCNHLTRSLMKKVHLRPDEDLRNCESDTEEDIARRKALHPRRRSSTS
T3 sequence (Q9UQM7 whole entry): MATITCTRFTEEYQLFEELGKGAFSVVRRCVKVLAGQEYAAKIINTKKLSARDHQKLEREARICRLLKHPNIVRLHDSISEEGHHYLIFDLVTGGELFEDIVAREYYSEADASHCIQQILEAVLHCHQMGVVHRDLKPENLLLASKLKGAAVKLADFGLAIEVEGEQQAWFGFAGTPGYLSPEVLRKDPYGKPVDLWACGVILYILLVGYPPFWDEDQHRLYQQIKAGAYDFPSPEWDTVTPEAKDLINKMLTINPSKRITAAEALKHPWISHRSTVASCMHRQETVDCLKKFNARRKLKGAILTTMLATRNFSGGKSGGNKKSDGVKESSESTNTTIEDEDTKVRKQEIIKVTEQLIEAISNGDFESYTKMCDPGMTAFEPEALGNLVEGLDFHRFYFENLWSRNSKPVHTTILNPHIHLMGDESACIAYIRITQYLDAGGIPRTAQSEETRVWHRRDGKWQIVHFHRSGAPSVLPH
T8 sequence (P15056 whole entry): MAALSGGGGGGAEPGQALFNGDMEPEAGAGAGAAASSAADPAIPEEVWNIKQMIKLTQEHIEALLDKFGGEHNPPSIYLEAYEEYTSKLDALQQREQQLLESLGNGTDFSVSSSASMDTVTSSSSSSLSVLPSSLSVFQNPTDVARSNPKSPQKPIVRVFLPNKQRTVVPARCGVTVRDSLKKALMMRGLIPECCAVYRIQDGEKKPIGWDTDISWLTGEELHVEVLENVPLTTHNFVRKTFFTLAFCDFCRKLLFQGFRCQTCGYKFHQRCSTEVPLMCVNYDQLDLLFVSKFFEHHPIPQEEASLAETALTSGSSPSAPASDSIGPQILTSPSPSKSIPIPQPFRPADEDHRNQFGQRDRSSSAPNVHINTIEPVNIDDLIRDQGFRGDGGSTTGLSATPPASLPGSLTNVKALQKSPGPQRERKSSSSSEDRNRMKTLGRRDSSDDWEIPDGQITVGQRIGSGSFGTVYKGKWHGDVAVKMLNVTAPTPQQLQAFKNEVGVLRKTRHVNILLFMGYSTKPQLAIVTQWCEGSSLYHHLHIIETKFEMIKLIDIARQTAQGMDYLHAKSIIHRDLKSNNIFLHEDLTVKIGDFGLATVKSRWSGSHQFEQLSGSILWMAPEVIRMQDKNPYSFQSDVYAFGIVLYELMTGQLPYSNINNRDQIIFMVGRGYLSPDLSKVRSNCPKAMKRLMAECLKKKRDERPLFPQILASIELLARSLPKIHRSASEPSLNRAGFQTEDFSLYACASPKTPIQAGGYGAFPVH
T9 sequence (P15056 whole entry V600E): as the sequence (P15056 whole entry) above, with V600E counted along it

Take `NC(=O)c1ccc(-c2nc(-c3ccc4c(c3)OCO4)c(-c3ccccn3)[nH]2)cc1` [SB431542, 4-(4-benzo-[1,3]dioxol-5-yl-5-pyridin-2-yl-1H-imidazol-2-yl)benzamide]: the inhibition at 10 µM in [1], in experiment [2], in experiment [3], in experiment [4], in [5] and in experiment [6] was under 50% throughout. The inhibition – broadly, the change of the read-out against control, counted positive when it falls – at 10 µM in experiment [8] was under 50%. For the same molecule, the “production of IL-6” value in [7] (mouse air pouch fluid) is on record as “inhibited”. For the same molecule, the “production of MCP1” value in experiment [7] (mouse air pouch fluid) was “inhibited”. In [7] (mouse air pouch, compound injected into pouch), the neutrophil influx entry is given as “inhibited”. In addition, in experiment [9], the “inhibition of IL-8 production in neutrophils” value is recorded as “dose-dependent inhibition”.
For the molecule `NC(=O)c1ccc(-c2nc(-c3ccc4c(c3)OCCO4)c(-c3ccccn3)[nH]2)cc1` [D4476, 4-[4-(2,3-Dihydro-benzo[1,4]dioxin-6-yl)-5-pyridin-2-yl-1H-imidazol-2-yl]benzamide], the inhibition at 10 µM in experiment [1], in [2], in experiment [3], in experiment [4], in experiment [10] and in experiment [5] was under 50% throughout. Further, the inhibition at 10 µM in [6], in [8] and in [11] was under 50% in each case.

The values are drawn from US20080146617A1, “Methods of treating inflammatory diseases” (Roche Palo Alto LLC, priority 2006, published 2008).
